According to patent US10265294B2, “Compositions and methods for treating epithelial cancer” (YALE UNIVERSITY, priority 2016, dated 2019):

How the values were obtained:
OCSCs = test: Cell death of OCSCs with JNK or ERK pathway inhibitor; assay type: cell-based, human; conditions: U0126 10 μM, 24 hour time-point
Description: (§1) Effect of each compound on cell morphology, growth, and viability was assessed using a kinetic live cell imaging system (Incucyte, Essen Bioscience). Proliferation was calculated as previously described (Alvero, et al., 2011, Mol. Cancer Ther. 10:1385-1393) using metrics from either confluence or fluorescent count from nuclear-restricted RFP or GFP. Cell death was quantified; similarly CELLTOX® Green Cytotoxicity Assay (Promega, Madison, Wis.). IC50 was calculated as described using GraphPad Prism (GraphPad Software Inc., LaJolla, Calif.).
Jun N-terminal kinase (JNK) is a stress-activated protein kinase and the main kinase that phosphorylates c-Jun. To determine whether the JNK/Jun pathway is involved in TRX-E-002-1-induced cell death, the JNK inhibitor SP600125 (1,9-Pyrazoloanthrone; a reversible ATP competitive inhibitor selective for JNK 1, 2, and 3) was used. Cells were treated with TRX-E-002-1 in the presence or absence of SP600125.
To determine the importance of downregulating the levels of p-ERK, cells were treated with U0126 (1,4-diamino-2,3-dicyano-1,4-bis(2-aminophenylthio)butadiene) to recapitulate the effect of TRX-E-002-1 on the ERK pathway.

ERK = test: Phosphokinase array / Western blot for phosphorylated ERK in OCSCs; assay type: cell-based, human; conditions: U0126 10 μM, 2 hours; comparable to levels induced by TRX-E-002-1
Description: SDS-PAGE and Western blots were performed using 20 μg of total protein lysate as described in Kamsteeg, et al., 2003, Oncogene 22:2611-2620. Antibodies used were: mouse anti-phospho ERK (Santa Cruz Biotechnology, Inc., Dallas, Tex.); rabbit anti-phospho c-Jun, rabbit anti c-Jun, rabbit anti-ERK, rabbit anti-cleaved caspase 3 all from Cell Signaling Technology, Danvers, Mass.; and mouse anti-GAPDH (Sigma-Aldrich).
In order to elucidate the early pathways responsible for the sustained cytotoxic effect observed with TRX-E-002-1, a phosphokinase array was performed. The phosphokinase array detected relative phosphorylation levels of 43 different kinases involved in major signal transduction pathways.
The western blot results also validated the decrease in p-ERK in cells treated with TRX-E-002-1. […] The effect on the phosphorylation status of the kinases (upregulation of p-cJun and downregulation of p-ERK) was observed as early as 2 h post-treatment and maintained up to 24 h (FIG. 4A). The phosphorylation levels of c-Jun and ERK correlate with the differential ability of the two doses of TRX-E-002-1 to induce a sustained cytotoxic effect. […] This correlates with the ability of this dose of TRX-E-002-1 to maintain the upregulation of p-cJun and downregulation of p-ERK even when the compound is removed (FIG. 4B). […]

[1] = system: OCSC2 (chemoresistant CD44+/MyD88+ ovarian cancer stem cell clone); test: Real-time measurement of cell number/cell death and IC50, OCSC2 clone; assay type: cell-based, human
Description: (§2) CD44+/MyD88+ ovarian cancer stem cell clones (OCSC1 and OCSC2) and CD44−/MyD88− ovarian cancer cells (OCC1 and OCC2) were isolated from either tumor tissue or ascites obtained from patients diagnosed with stage III/IV serous ovarian cancer and propagated (Alvero, et al., 2009, Cell Cycle 8:158-166; Chefetz, et al., 2013, Cell Cycle 12:511-521). The epithelial nature of the isolated cells was determined by immunostaining for Ck18. Purity of the cultures based on CD44 expression by flow cytometry and chemoresistance were routinely tested. Stable expression of nuclear-restricted red fluorescent (in OCSCs) or green fluorescent proteins (in OCCs) was performed by transduction using NUCLIGHT® Red or Green Lentivirus Reagent (Essen Bioscience, Ann Arbor, Mich.). Spheroids were formed from OCSCs by culturing in ultra-low attachment multi-well plates (Corning, Inc., Corning, N.Y.).
as §1
(§3) A panel of four different SBP subfamilies with cytotoxic activity against chemoresistant ovarian cancer stem cells were tested for efficacy in inducing ovarian cancer stem cell death. […] The efficacy of each analog was determined based on its IC50.
TRX-E-002 exists as a racemic mixture comprised of two enantiomers, enantiomer A (TRX-E-002-1) and enantiomer B (TRX-E-002-2). Thus, the enantiomers were separated and assessed separately. […]

[2] = system: OCSCs (CD44+/MyD88+ ovarian cancer stem cells); test: OCSC growth, morphology, RFP+ cell count and Celltox cell death (kinetic live cell imaging); assay type: cell-based, human
Description: as §2, §1
In vitro, conventional chemotherapeutic drugs had negligible effect on OCSC growth even in the μM range (FIG. 1B).
TRX-E-002 exists as a racemic mixture comprised of two enantiomers, enantiomer A (TRX-E-002-1) and enantiomer B (TRX-E-002-2). Thus, the enantiomers were separated and assessed separately. To distinguish between an analog's cytostatic or cytotoxic activity, OCSC clones that are stably transfected with nuclear-restricted RFP were used, which allows an accurate quantification of the number of cells and can be multiplexed with CELLTOX® assay to concomitantly measure the number of dead cells.

[3] = system: co-culture of RFP-labeled OCSC2 and GFP-labeled OCC2; test: In vitro co-culture model 50% RFP-OCSC2 / 50% GFP-OCC2; assay type: cell-based; conditions: co-culture 50/50; TRX-E-002-1 0.12 μM, Cisplatin 20 μM
Description: as §2, §1
Without wishing to be limited by any theory, response to chemotherapy may be modified by cross-talk among different cancer cell types within the tumor. Thus, to mimic the heterogeneity of ovarian tumors an in vitro co-culture model consisting of RFP-labeled chemoresistant OCSC2 and GFP-labeled chemosensitive OCC2 was used. The co-cultures, which are comprised of 50% RFP-OCSC2 and 50% GFP-OCC2 at time of treatment, were exposed to TRX-E-002-1, cisplatin, or the combination of both. Since GFP-OCC2 has faster doubling time than RFP-OCSC2, it overtook the control co-cultures by the end of the experiment and thus the control co-cultures are mainly comprised of GFP-OCC2 by the 24 h time-point (FIG. 2B).

[4] = system: i.p. tumors of mCherry+OCSC1-F2 ovarian cancer cells; test: Recurrent disease xenograft, maintenance treatment after Paclitaxel; assay type: in vivo
Description: The Yale University Institutional Animal Care and Use Committee approved all in vivo studies described. Intra-peritoneal tumors were established in athymic nude mice using 4×10^6 mCherry+OCSC1-F2 ovarian cancer cells (Craveiro, et al., 2013, Cancer Med. 2:751-762). Injection of cancer cells is designated as day 0 and treatment commenced between day 3-5. Establishment of i.p. tumors was confirmed by live imaging (In-Vivo FX PRO, Bruker Corp., Billerica, Mass.) prior to treatment. TRX-E-002-1 was prepared in 20% Captisol or Dexsolve and administered daily at 50 mg/kg or 100 mg/kg. Paclitaxel was given at 12 mg/kg q3d and Cisplatin at 5 mg/kg weekly. All treatments were given i.p. Tumor growth was monitored q3d by live imaging and response to treatment was assessed using ROI area.
Although the standard of care for ovarian cancer patients (platinum plus taxane) is effective initially, most patients develop recurrent disease. Recurrence is the major cause of mortality in ovarian cancer patients, and thus approaches that can prevent recurrence are critical to improve patient survival. As described elsewhere herein, a unique advantage of the xenograft model is the recapitulation of recurrent disease that is typically observed in patients with ovarian cancer. […] Upon recurrence, tumors acquire resistance and become unresponsive to a second-round of Paclitaxel regimen, as observed in ovarian cancer patients. Thus, the model allows one to assess the value of novel compounds in preventing recurrence when given as maintenance treatment.
Thus mice were given Paclitaxel as initial treatment. […] After the 4th dose of Paclitaxel mice were re-randomized into the different maintenance groups. Here the maintenance protocol consisted of continued treatment with Paclitaxel, or maintenance with TRX-E-002-1 (100 mg/kg), or maintenance with Vehicle control.

[5] = system: chemoresistant ovarian cancer stem cells; test: OCSC growth and morphology with TRX-E-002-1, AICAR or the combination; assay type: cell-based, human
Description: The effect of each compound on cell growth was assessed using a kinetic live cell imagine system (Incucyte, Essen Bioscience). Proliferation was determined based on either confluence or fluorescent count from nuclear-restricted RFP or GFP. The IC50 values were calculated using GraphPad Prism (GraphPad Software Inc., LaJolla, Calif.). […]

[6] = system: OCSC1 (chemoresistant CD44+/MyD88+ ovarian cancer stem cell clone); test: Real-time measurement of cell number/cell death and IC50, OCSC1 clone; assay type: cell-based; conditions: Homo sapiens; screen of 40 SBP analogs, OCSC1 clone (FIG. 1A)
Description: CD44+/MyD88+ ovarian cancer stem cell clones (OCSC1 and OCSC2) and CD44−/MyD88− ovarian cancer cells (OCC1 and OCC2) were isolated from either tumor tissue or ascites obtained from patients diagnosed with stage III/IV serous ovarian cancer and propagated (Alvero, et al., 2009, Cell Cycle 8:158-166; Chefetz, et al., 2013, Cell Cycle 12:511-521). The epithelial nature of the isolated cells was determined by immunostaining for Ck18. Purity of the cultures based on CD44 expression by flow cytometry and chemoresistance were routinely tested. […]
as §1, §3

N#CC(=C(N)Sc1ccccc1N)C(C#N)=C(N)Sc1ccccc1N [U0126, 1,4-diamino-2,3-dicyano-1,4-bis(2-aminophenylthio)butadiene, reference compound]
effect on cell death relative to TRX-E-002-1 (OCSCs): not comparable
levels of p-ERK (ERK): downregulated

COc1cc(C2COc3c(ccc(O)c3C)C2c2ccc(O)cc2)cc(OC)c1O (single isomer, unassigned) [TRX-E-002-2]
IC50 ([1]; OCSC2, 24 hours (FIG. 1G)): 10 µM
number of nuclear RFP+ cells ([2]; RFP OCSC clones, TRX-E-002-1 beginning at the 0.245 μM dose, TRX-E-002-2 except for the very high dose of 10 μM): mostly ineffective

N.N.[Cl][Pt][Cl] [Cisplatin, reference compound]
number of GFP+ cells (GFP-OCC2) [3]: decrease
number of mCherry+ cells (RFP-OCSC2) [3]: no effect

CC(=O)O[C@H]1C(=O)[C@@]2(C)[C@H]([C@H](OC(=O)c3ccccc3)[C@]3(O)C[C@H](OC(=O)[C@H](O)[C@@H](NC(=O)c4ccccc4)c4ccccc4)C(C)=C1C3(C)C)[C@]1(OC(C)=O)CO[C@@H]1C[C@@H]2O [Paclitaxel, reference compound]
tumor progression during initial treatment ([4]; Paclitaxel 4 doses at 12 mg/kg i.p.): significant delay in tumor progression
tumor progression during maintenance treatment ([4]; after 4th dose of Paclitaxel, TRX-E-002-1 100 mg/kg daily i.p. or continued Paclitaxel): tumor progression was observed
gross examination of residual disease ([4]; maintenance groups): visible carcinomatosis and extensive metastasis
tumor weights at end point compared to control ([4]; maintenance groups): not

NC(=O)c1ncn([C@@H]2O[C@H](CO)[C@@H](O)[C@H]2O)c1N [AICAR, 5-aminoimidazole-4-carboxamide-1-β-D-ribofuranoside, reference compound]
cell morphology / apoptotic cells ([5]; 48 hours, AICAR at 0.2 mM): no effect
effect on cell growth ([5]; TRX-E-002-1 25 ng/ml, mono therapies or combination): minimal effect

COc1cc(C2COc3c(ccc(O)c3C)C2c2ccc(O)cc2)cc(OC)c1O (racemic) [TRX-E-002, 3-(4-hydroxy-3,5-dimethoxyphenyl)-4-(4-hydroxyphenyl)-8-methylchroman-7-ol]
IC50 [6]: < 245 nM
IC50 ([1]; Homo sapiens, screen of 40 SBP analogs, OCSC2 clone (FIG. 1A)): < 0.245 µM
apoptotic cells by microscopic evaluation of the cultures ([2]; 24 hours, compared with Cisplatin or Paclitaxel treated cultures): higher percentage of apoptotic cells
effect on OCSC growth ([2]; chemotherapeutic drugs even in the μM range, TRX-E-002 at low concentrations): persistent growth inhibitory effect
